Test results reported in patent publication US9232796B2, “Herbicidal compositions comprising 4-amino-3-chloro-5-fluoro-6-(4-chloro-2-fluoro-3-methoxyphenyl) pyridine-2-carboxylic acid or a derivative thereof and acetyl-CoA carboxylase (ACCase) inhibitors” (DOW AGROSCIENCES LLC, priority 2012, dated 2016).

Key:
ECHCG = experiment: Example VI in-water applied ternary mixtures, greenhouse, transplanted paddy rice weeds; format: in vivo, Echinochloa crus-galli (L.) Beauv.
Procedure, shortened: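 Compound A (SC, acid-equivalent basis) alone or with cyhalofop-R-butyl or metamifop plus a third herbicide, injected into paddy water of greenhouse-grown transplanted rice and weeds at 1st–4th leaf stage (~29/26 °C). Visual injury scored 0–100% after ~3 weeks vs untreated; expected mixture effects by Colby's equation.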

ECHCO = experiment: Example V post-emergence field trials in direct-seeded rice; format: in vivo, Echinochloa colona; settings: foliar, field trial Tolima, Colombia
Description: Multiple field trials were conducted under commercial grower field conditions in Tolima, Colombia; Thessaloniki, Greece; Bianze and Copiano, Italy; and Humphrey, Ark., USA. Trials sites were located in commercially grown fields of direct-seeded rice (Oryza sativa) using standard herbicide small plot research methodology. Plots varied from 2 to 3 meter (m)×5 to 8 m (width×length) with 4 replicates per treatment. The rice crop was grown using normal cultural practices for fertilization, seeding, watering, flooding and maintenance to ensure good growth of the crop and the weeds.
All treatments in the field trials were applied using a backpack compressed air/gas sprayer with flat fan nozzles (80° or 110°) calibrated to apply 187 to 300 L/ha spray volume at approximately 200-400 kPa nozzle pressure. Commercially available products of cyhalofop-butyl (Clincher 180EC, Clincher 200EC, and Clincher SF (285 gr ai/L EC)) were mixed in water at appropriate formulated product rates to achieve the desired rates based on a unit area of application (hectare) to achieve the desired rates as shown. Treatments were rate at 19 to 58 days after application (DAA) as compared to the untreated control plants. Visual weed control was scored on a scale of 0 to 100 percent where 0 corresponds to no injury and 100 corresponds to complete kill. […]

With `COc1c(Cl)ccc(-c2nc(C(=O)OCc3ccccc3)c(Cl)c(N)c2F)c1F` [Compound A Benzyl Ester, benzyl ester of 4-amino-3-chloro-5-fluoro-6-(4-chloro-2-fluoro-3-methoxy-phenyl)pyridine-2-carboxylic acid] as the compound, how does the “Visual Weed Control (%) - 21 DAA ECHCG Obs” value (ECHCG; 1.09 gae/ha, first set) read?
The value was 0%.

What about the “Visual Weed Control (%) - 21 DAA ECHCG Obs” value (ECHCG; 1.09 gae/ha, first sub-table) of the same compound?
Its value is 0%.

And the “Visual Weed Control (%) - 21 DAA ECHCG Obs” value (ECHCG; 2.19 gae/ha, first set)?
The value was 7%.

And the “Visual Weed Control (%) - 21 DAA ECHCG Obs” value (ECHCG; 2.19 gae/ha, first sub-table)?
Its value is 7%.

And the “Visual Weed Control (%) - 21 DAA ECHCG Obs” value (ECHCG; 4 gae/ha)?
Its value is 25%.

What about the “Visual Weed Control (%) - 21 DAA ECHCG Obs” value (ECHCG; 4 gae/ha, second set) of the same compound?
Its value is 25%.

And the “Visual Weed Control (%) - 21 DAA ECHCG Obs” value (ECHCG; 4 gae/ha, second sub-table)?
The value was 25%.

What about the “Visual Weed Control (%) - 21 DAA ECHCG Obs” value (ECHCG; 8 gae/ha) of the same compound?
The value was 45%.

And the “Visual Weed Control (%) - 21 DAA ECHCG Obs” value (ECHCG; 8 gae/ha, second set)?
Its value is 45%.

And the “Visual Weed Control (%) - 21 DAA ECHCG Obs” value (ECHCG; 8 gae/ha, second sub-table)?
Its value is 45%.

And the “Visual Weed Control (%) - 21 DAA ECHCG Obs” value (ECHCG; 16 gae/ha)?
The value was 99%.

What about the “Visual Weed Control (%) - 21 DAA ECHCG Obs” value (ECHCG; 16 gae/ha, second set) of the same compound?
The value was 99%.

And the “Visual Weed Control (%) - 21 DAA ECHCG Obs” value (ECHCG; 16 gae/ha, second sub-table)?
Its value is 99%.

What about the “Visual Weed Control (%) - 21 DAA ECHCG Obs” value (ECHCG; Table 67, 4 gae/ha, 21 DAA) of the same compound?
Its value is 25%.

What about the “Visual Weed Control (%) - 21 DAA ECHCG Obs” value (ECHCG; Table 68, 4 gae/ha, 21 DAA) of the same compound?
Its value is 25%.

What about the “Visual Weed Control (%) - 21 DAA ECHCG Obs” value (ECHCG; Table 68, 8 gae/ha, 21 DAA) of the same compound?
The value was 45%.

And the “Visual Weed Control (%) - 21 DAA ECHCG Obs” value (ECHCG; Table 68, 16 gae/ha, 21 DAA)?
The value was 99%.

What about the “Visual Weed Control (%) - 19 DAA ECHCO Obs” value (ECHCO; 12 gae/ha) of the same compound?
The value was 76%.

`CCCCOC(=O)[C@@H](C)Oc1ccc(Oc2ccc(C#N)cc2F)cc1` [Cyhalofop-butyl, butyl(2R)-2-[4-(4-cyano-2-fluorophenoxy)phenoxy]propanoate, reference compound] was tested. Which “Visual Weed Control (%) - 21 DAA ECHCG Obs” value (ECHCG; 22.5 gai/ha, first set) did it give?
The value was 0%.

And the “Visual Weed Control (%) - 21 DAA ECHCG Obs” value (ECHCG; 22.5 gai/ha, first sub-table)?
The value was 0%.

And the “Visual Weed Control (%) - 21 DAA ECHCG Obs” value (ECHCG; 45 gai/ha)?
The value was 30%.

What about the “Visual Weed Control (%) - 21 DAA ECHCG Obs” value (ECHCG; 45 gai/ha, first set) of the same compound?
Its value is 3%.

And the “Visual Weed Control (%) - 21 DAA ECHCG Obs” value (ECHCG; 45 gai/ha, first sub-table)?
Its value is 3%.

And the “Visual Weed Control (%) - 21 DAA ECHCG Obs” value (ECHCG; 45 gai/ha, second set)?
The value was 30%.

And the “Visual Weed Control (%) - 21 DAA ECHCG Obs” value (ECHCG; 45 gai/ha, second sub-table)?
Its value is 30%.

What about the “Visual Weed Control (%) - 21 DAA ECHCG Obs” value (ECHCG; Table 67, 45 gai/ha, 21 DAA) of the same compound?
Its value is 30%.

And the “Visual Weed Control (%) - 21 DAA ECHCG Obs” value (ECHCG; Table 68, 45 gai/ha, 21 DAA)?
Its value is 30%.

What about the “Visual Weed Control (%) - 19 DAA ECHCO Obs” value (ECHCO; 280 gai/ha) of the same compound?
Its value is 0%.
